{"source": "patent US11364275B2", "about": "“Linear lipopeptide paenipeptins and methods of using the same” (priority 2017, dated 2022)", "key": {"[1]": {"system": "Acinetobacter baumannii ATCC 19606", "format": "cell-based", "conditions": "A. baumannii ATCC 19606; TSB"}, "[2]": {"system": "Escherichia coli ATCC 25922", "format": "cell-based", "conditions": "E. coli ATCC 25922; TSB", "method": "(§4) The minimum inhibitory concentration (MIC) of paenipeptin analogues was determined using the broth microdilution method (Wirker, M. A. Methods for Dilution Antimicrobial Susceptibility Tests for Bacteria that Grow Aerobically: Approved Standard M07-A8; Clinical and Laboratory Standards Institute, Wayne, Pa., 2009). Seven reference strains (Acinetobacter baumannii ATCC 19606, Escherichia coli ATCC 25922, Klebsiella pneumoniae ATCC 13883, Pseudomonas aeruginosa ATCC 27853, Enterococcus faecium ATCC 19434, Staphylococcus aureus ATCC 29213 and methicillin-resistant S. aureus ATCC 43300) were subjected to MIC testing.\n(§5) Paenipeptin analogues were two-fold diluted in tryptic soy broth (TSB; Becton Dickinson) and mixed with an equal volume of bacterial suspensions in TSB containing approximately 1.5×10^5 colony-forming units (CFU)/mL in a clear UV-sterilized 96-well microtiter plate (NBS, Corning Inc., Corning, N.Y.). […] The microtiter plate was incubated at 37° C. for 18-20 h."}, "[3]": {"system": "Klebsiella pneumoniae ATCC 13883", "format": "cell-based", "conditions": "K. pneumoniae ATCC 13883; TSB"}, "[4]": {"system": "Pseudomonas aeruginosa ATCC 27853", "format": "cell-based", "conditions": "P. aeruginosa ATCC 27853; TSB"}, "[5]": {"system": "Enterococcus faecium ATCC 19434", "format": "cell-based", "conditions": "E. faecium ATCC 19434; TSB", "method": "as §4, §5"}, "[6]": {"system": "Staphylococcus aureus ATCC 29213", "format": "cell-based", "conditions": "S. aureus ATCC 29213; TSB", "method": "as §4, §5"}, "[7]": {"system": "methicillin-resistant S. aureus ATCC 43300", "format": "cell-based, Staphylococcus aureus", "conditions": "S. aureus ATCC 43300; TSB", "method": "as §4, §5"}, "Cytotoxicity, MTT assay": {"assay": "Cytotoxicity, MTT assay", "format": "cell-based, human", "conditions": "human, HEK 293 cells, HEK 293, 24 h, read-out: Viability", "experimental": "(§1) Cytotoxicity of paenipeptin analogues was determined against a human kidney cell line (HEK 293) using MTT assays (Huang E, Yousef AE. 2014. Paenibacterin, a novel broad-spectrum lipopeptide antibiotic, neutralises endotoxins and promotes survival in a murine model of Pseudomonas aeruginosa-induced sepsis. Int J Antimicrob Agents 44: 74-77). Cell viability was measured at 24 h following the addition of lipopeptides at concentrations between 30-105 μg/ml. The viability of human embryonic kidney cells (HEK 293) decreased with the increase of paenipeptin concentration. The viability of HEK 293 cells in the presence of paenipeptin analogue 1 and 15 at 105 μg/ml was 61% and 67%, respectively (Table 10). The relatively low cytotoxicity of paenipeptin analogue 1 and 15 was correlated with their low hemolytic activity against red blood cells."}, "[8]": {"system": "human kidney cell line (HEK 293)", "assay": "Cytotoxicity, MTT assay", "format": "cell-based", "conditions": "HEK 293; 105 μg/ml; 24 h", "experimental": "as §1"}, "[9]": {"system": "Acinetobacter baumannii ATCC 19606", "assay": "MIC of antibiotics with or without paenipeptin analogues (potentiation)", "format": "cell-based", "conditions": "A. baumannii ATCC 19606", "from_the_text": "(§2) Gram-negative bacteria, including Acinetobacter and Klebsiella, are intrinsically resistant to the hydrophobic antibiotic rifampicin."}, "[10]": {"system": "Klebsiella pneumoniae ATCC 13883", "assay": "MIC of antibiotics with or without paenipeptin analogues (potentiation)", "format": "cell-based", "conditions": "K. pneumoniae ATCC 13883", "from_the_text": "as §2"}, "[11]": {"system": "A. baumannii FDA-CDC AR 0063", "assay": "Time-kill kinetics in 95% human serum, alone and combined", "format": "cell-based, Acinetobacter baumannii", "conditions": "A. baumannii AR 0063, 24 h", "experimental": "(§3) Bacterial viable counts were determined at 0, 2, 4, 6, and 24 h after antimicrobial treatment. Bacterial surviving counts at 24 h endpoints were subjected to analysis of variance (ANOVA) followed by Tukey's honest significant difference (HSD) tests using SPSS Statistics (version 24; SPSS, Inc., Chicago, Ill., USA).\nTo further test the therapeutic potential of paenipeptin analogues, the time-kill kinetics assays of paenipeptins alone or in combination with other antibiotics were performed in 95% human serum in vitro. Without antimicrobial treatment, the population of A. baumannii FDA-CDC AR 0063 increased from 5.8 log to 9.3 log within 24 h. […] (FIG. 7A)."}, "[12]": {"system": "K. pneumoniae FDA-CDC AR0097", "assay": "Time-kill kinetics in 95% human serum, alone and combined", "format": "cell-based, Klebsiella pneumoniae", "experimental": "as §3\nTo further test the therapeutic potential of paenipeptin analogues, the time-kill kinetics assays of paenipeptins alone or in combination with other antibiotics were performed in 95% human serum in vitro."}, "[13]": {"system": "A. baumannii FDA-CDC AR 0052", "conditions": "A. baumannii AR 0052"}, "[14]": {"system": "A. baumannii FDA-CDC AR 0063", "conditions": "A. baumannii AR 0063"}, "[15]": {"system": "K. pneumoniae FDA-CDC AR 0034", "conditions": "K. pneumoniae AR 0034"}, "[16]": {"system": "K. pneumoniae FDA-CDC AR 0068", "conditions": "K. pneumoniae AR 0068"}, "[17]": {"system": "K. pneumoniae FDA-CDC AR 0080", "conditions": "K. pneumoniae AR 0080"}}, "note": "Like-named read-outs stand apart in the source and are kept apart here. Where a SMILES comes first, the peptide text is derived from it. [ ]: non-standard residue; d: D form. The star is where a group is joined. Dab = NCC[C@H](N)C(=O)O; Cbz = O=C(OCc1ccccc1)*"}
{"molecule": "CC[C@H](C)[C@H](NC(=O)[C@H](CCN)NC(=O)OCc1ccccc1)C(=O)N[C@@H](CCN)C(=O)N[C@H](Cc1ccccc1)C(=O)N[C@@H](CC(C)C)C(=O)N[C@@H](CCN)C(=O)N[C@@H](C(=O)N[C@@H](CC(C)C)C(=O)N[C@@H](CO)C(N)=O)C(C)C", "note": "[Analogue 15] (Cbz-[Dab]I[Dab][dF]L[Dab][dV]LS-NH2)", "values": [{"measurement": "MIC", "setting": "[1]", "value": 16, "unit": "µg/mL"}, {"measurement": "MIC", "setting": "[2]", "value": "8 to 16", "unit": "µg/mL"}, {"measurement": "MIC", "setting": "[3]", "value": ">32", "unit": "µg/mL"}, {"measurement": "MIC", "setting": "[4]", "value": 16, "unit": "µg/mL"}, {"measurement": "MIC", "setting": "[5]", "value": ">32", "unit": "µg/mL"}, {"measurement": "MIC", "setting": "[6]", "value": ">32", "unit": "µg/mL"}, {"measurement": "MIC", "setting": "[7]", "value": ">32", "unit": "µg/mL"}, {"measurement": "viability at 24 h, 30 µg/mL", "setting": "Cytotoxicity, MTT assay; 30 μg/ml", "value": "91.4 ± 4.09", "unit": "%"}, {"measurement": "viability at 24 h, 45 µg/mL", "setting": "Cytotoxicity, MTT assay; 45 μg/ml", "value": "84.3 ± 8.12", "unit": "%"}, {"measurement": "viability at 24 h, 60 µg/mL", "setting": "Cytotoxicity, MTT assay; 60 μg/ml", "value": "82 ± 4.54", "unit": "%"}, {"measurement": "viability at 24 h, 75 µg/mL", "setting": "Cytotoxicity, MTT assay; 75 μg/ml", "value": "73.3 ± 5.37", "unit": "%"}, {"measurement": "viability at 24 h, 90 µg/mL", "setting": "Cytotoxicity, MTT assay; 90 μg/ml", "value": "67.1 ± 10", "unit": "%"}, {"measurement": "viability at 24 h, 105 µg/mL", "setting": "Cytotoxicity, MTT assay; 105 μg/ml", "value": "67.5 ± 9.66", "unit": "%"}, {"measurement": "Viability", "setting": "[8]", "value": 67, "unit": "%"}, {"measurement": "MIC of rifampicin at 2 μg/mL of paenipeptin analogue", "setting": "[9]", "value": "0.0019-0.0039 μg/ml"}, {"measurement": "MIC of rifampicin at 2 μg/mL of paenipeptin analogue", "setting": "[10]", "value": 0.0039, "unit": "μg/ml"}, {"measurement": "MIC of rifampicin at 4 μg/mL of paenipeptin analogue", "setting": "[10]", "value": "0.00195-0.0039 μg/ml"}, {"measurement": "Sensitization factor (rifampicin)", "setting": "[10]; MIC without / with 4 μg/mL paenipeptin", "value": "4,096-8,192"}, {"measurement": "decrease of bacterial population, analogue 4 μg/ml in combination with rifampicin 4 μg/ml", "setting": "[11]", "value": 2.7, "unit": "log"}, {"measurement": "log reduction, analogue 4 μg/ml in combination with clarithromycin 4 μg/ml", "setting": "[11]", "value": 0.7, "unit": "log"}, {"measurement": "log reduction, analogue 4 μg/ml in combination with rifampicin 4 μg/ml", "setting": "[12]; 24 h", "value": 4.6, "unit": "log"}, {"measurement": "log inactivation, single agent at 4 μg/ml", "setting": "[12]; within 24 h", "value": "didn't show bactericidal activity"}, {"measurement": "MIC alone", "setting": "[13]; 10% FBS", "value": "<0.5", "unit": "µg/mL"}, {"measurement": "MIC alone", "setting": "[13]; No FBS", "value": "≤0.5", "unit": "µg/mL"}, {"measurement": "MIC alone", "setting": "[14]; 10% FBS", "value": 2, "unit": "µg/mL"}, {"measurement": "MIC alone", "setting": "[14]; No FBS", "value": "0.5 to 4", "unit": "µg/mL"}, {"measurement": "MIC of clarithromycin at the presence of PMBN or paenipeptin analogue at 4 μg/ml", "setting": "[15]", "value": "0.125-0.5 μg/ml"}, {"measurement": "MIC of rifampicin at the presence of PMBN or paenipeptin analogue at 4 μg/ml", "setting": "[15]", "value": "≤0.0019", "unit": "μg/ml"}, {"measurement": "MIC alone", "setting": "[15]; 10% FBS", "value": ">32", "unit": "µg/mL"}, {"measurement": "MIC alone", "setting": "[15]; No FBS", "value": "≥32", "unit": "µg/mL"}, {"measurement": "MIC of clarithromycin at the presence of PMBN or paenipeptin analogue at 4 μg/ml", "setting": "[16]", "value": ">32", "unit": "μg/ml"}, {"measurement": "MIC of rifampicin at the presence of PMBN or paenipeptin analogue at 4 μg/ml", "setting": "[16]", "value": "0.0039-0.0078 μg/ml"}, {"measurement": "MIC alone", "setting": "[16]; 10% FBS", "value": ">32", "unit": "µg/mL"}, {"measurement": "MIC alone", "setting": "[16]; No FBS", "value": ">32", "unit": "µg/mL"}, {"measurement": "MIC of clarithromycin at the presence of PMBN or paenipeptin analogue at 4 μg/ml", "setting": "[17]", "value": 0.0156, "unit": "μg/ml"}, {"measurement": "MIC of rifampicin at the presence of PMBN or paenipeptin analogue at 4 μg/ml", "setting": "[17]", "value": 0.0313, "unit": "μg/ml"}, {"measurement": "MIC alone", "setting": "[17]; 10% FBS", "value": 32, "unit": "µg/mL"}, {"measurement": "MIC alone", "setting": "[17]; No FBS", "value": 32, "unit": "µg/mL"}]}
